Experimental data taken from the NIST ThermoML archive (doi:10.1021/je700344f).

Assay: xn = mol fraction of the nth substance listed
Conditions: 101 kPa, Liquid

CN(C)c1ccccc1 [N,N-dimethylaniline] + C1COCCO1
Conditions	mass density [kg/m3]	viscosity [mPa·s]
283.15 K, x2 = 0.3099	990.33	1.68
283.15 K, x2 = 0.4246	998.33	1.66
283.15 K, x2 = 0.5302	1005.32	1.637
283.15 K, x2 = 0.6278	1013.42	1.629
283.15 K, x2 = 0.7182	1019.31	1.607
283.15 K, x2 = 0.7749	1025.23	1.606
283.15 K, x2 = 0.8551	1034.31	1.602
283.15 K, x2 = 0.9081	1040.92	1.591
283.15 K, x2 = 0.9538	1043.01	1.588
293.15 K, x2 = 0.3099	980.73	1.424
293.15 K, x2 = 0.4246	989.12	1.428
293.15 K, x2 = 0.5302	995.81	1.37
293.15 K, x2 = 0.6278	1003.54	1.362
293.15 K, x2 = 0.7182	1011.33	1.345
293.15 K, x2 = 0.7749	1016.79	1.339
293.15 K, x2 = 0.8551	1023.65	1.326
293.15 K, x2 = 0.9081	1031.25	1.33
293.15 K, x2 = 0.9538	1035.34	1.327
303.15 K, x2 = 0.3099	973.4	1.199
303.15 K, x2 = 0.4246	980.12	1.182
303.15 K, x2 = 0.5302	986.56	1.166
303.15 K, x2 = 0.6278	993.63	1.157
303.15 K, x2 = 0.7182	1001.04	1.142
303.15 K, x2 = 0.7749	1005.98	1.136
303.15 K, x2 = 0.8551	1014.07	1.131
303.15 K, x2 = 0.9081	1019.01	1.124
303.15 K, x2 = 0.9538	1024.82	1.122
313.15 K, x2 = 0.3099	963.88	1.029
313.15 K, x2 = 0.4246	970.47	1.025
313.15 K, x2 = 0.5302	977.93	1.01
313.15 K, x2 = 0.6278	984.4	1.002
313.15 K, x2 = 0.7182	991.21	0.987
313.15 K, x2 = 0.7749	995.85	0.984
313.15 K, x2 = 0.8551	1003.65	0.976
313.15 K, x2 = 0.9081	1008.93	0.965
313.15 K, x2 = 0.9538	1014.66	0.968
323.15 K, x2 = 0.3099	955.01	0.912
323.15 K, x2 = 0.4246	961.76	0.901
323.15 K, x2 = 0.5302	968.52	0.886
323.15 K, x2 = 0.6278	974.24	0.879
323.15 K, x2 = 0.7182	981.34	0.872
323.15 K, x2 = 0.7749	985.13	0.861
323.15 K, x2 = 0.8551	993.17	0.857
323.15 K, x2 = 0.9081	997.95	0.848
323.15 K, x2 = 0.9538	1002.4	0.845
333.15 K, x2 = 0.3099	945.84	0.811
333.15 K, x2 = 0.4246	953.15	0.798
333.15 K, x2 = 0.5302	958.78	0.786
333.15 K, x2 = 0.6278	964.37	0.779
333.15 K, x2 = 0.7182	971.52	0.771
333.15 K, x2 = 0.7749	974.75	0.763
333.15 K, x2 = 0.8551	983.43	0.761
333.15 K, x2 = 0.9081	986.57	0.75
333.15 K, x2 = 0.9538	991.84	0.751
343.15 K, x2 = 0.3099	936.89	0.725
343.15 K, x2 = 0.4246	944.04	0.716
343.15 K, x2 = 0.5302	948.37	0.71
343.15 K, x2 = 0.6278	954.22	0.711
343.15 K, x2 = 0.7182	962.15	0.689
343.15 K, x2 = 0.7749	964.44	0.683
343.15 K, x2 = 0.8551	971.97	0.678
343.15 K, x2 = 0.9081	977.83	0.674
343.15 K, x2 = 0.9538	980.14	0.67

CN(C)c1ccccc1 [N,N-dimethylaniline] + CCCCCCO
Conditions	mass density [kg/m3]	viscosity [mPa·s]
283.15 K, x2 = 0.1009	958.16	1.749
283.15 K, x2 = 0.2017	944.54	1.867
283.15 K, x2 = 0.3022	928.83	2.079
283.15 K, x2 = 0.4025	915.52	2.306
283.15 K, x2 = 0.5026	904.21	2.676
283.15 K, x2 = 0.6025	890.94	3.092
283.15 K, x2 = 0.7022	876.26	3.708
283.15 K, x2 = 0.8016	861.23	4.614
283.15 K, x2 = 0.9009	848.23	5.687
293.15 K, x2 = 0.1009	950	1.448
293.15 K, x2 = 0.2017	936.43	1.527
293.15 K, x2 = 0.3022	920.62	1.667
293.15 K, x2 = 0.4025	909.23	1.837
293.15 K, x2 = 0.5026	896.74	2.086
293.15 K, x2 = 0.6025	882.6	2.359
293.15 K, x2 = 0.7022	868.6	2.821
293.15 K, x2 = 0.8016	852.26	3.401
293.15 K, x2 = 0.9009	841.25	4.138
303.15 K, x2 = 0.1009	942.24	1.221
303.15 K, x2 = 0.2017	928.31	1.276
303.15 K, x2 = 0.3022	912.67	1.38
303.15 K, x2 = 0.4025	901.18	1.496
303.15 K, x2 = 0.5026	888.09	1.668
303.15 K, x2 = 0.6025	875.63	1.891
303.15 K, x2 = 0.7022	860.74	2.16
303.15 K, x2 = 0.8016	846.02	2.585
303.15 K, x2 = 0.9009	832.65	3.101
313.15 K, x2 = 0.1009	933.77	1.051
313.15 K, x2 = 0.2017	920.41	1.086
313.15 K, x2 = 0.3022	904.59	1.16
313.15 K, x2 = 0.4025	892.85	1.246
313.15 K, x2 = 0.5026	879.8	1.369
313.15 K, x2 = 0.6025	867.83	1.524
313.15 K, x2 = 0.7022	852.77	1.732
313.15 K, x2 = 0.8016	839.15	2.023
313.15 K, x2 = 0.9009	824.98	2.37
323.15 K, x2 = 0.1009	925.31	0.917
323.15 K, x2 = 0.2017	912.27	0.939
323.15 K, x2 = 0.3022	896.34	0.992
323.15 K, x2 = 0.4025	885.58	1.056
323.15 K, x2 = 0.5026	872.2	1.138
323.15 K, x2 = 0.6025	859.03	1.269
323.15 K, x2 = 0.7022	843.94	1.404
323.15 K, x2 = 0.8016	831.15	1.61
323.15 K, x2 = 0.9009	818.33	1.869
333.15 K, x2 = 0.1009	916.93	0.812
333.15 K, x2 = 0.2017	905.29	0.826
333.15 K, x2 = 0.3022	887.96	0.861
333.15 K, x2 = 0.4025	876.93	0.908
333.15 K, x2 = 0.5026	864.04	0.971
333.15 K, x2 = 0.6025	849.87	1.044
333.15 K, x2 = 0.7022	837.74	1.157
333.15 K, x2 = 0.8016	823.68	1.31
333.15 K, x2 = 0.9009	810.66	1.423
343.15 K, x2 = 0.1009	909.05	0.774
343.15 K, x2 = 0.2017	895.76	0.731
343.15 K, x2 = 0.3022	880	0.737
343.15 K, x2 = 0.4025	867.83	0.79
343.15 K, x2 = 0.5026	854.24	0.83
343.15 K, x2 = 0.6025	842.51	0.902
343.15 K, x2 = 0.7022	829.06	0.973
343.15 K, x2 = 0.8016	813.99	1.08
343.15 K, x2 = 0.9009	803.44	1.218
